Assay results as given in patent US10611740B2, “Aryl dihydro-2H-benzo[b][1,4]oxazine sulfonamide and related compounds for use as agonists of RORγ and the treatment of disease” (Lycera Corporation, priority 2015, dated 2020).

How the values were obtained:
RORγ-LBD = target: T1, RORγ-LBD (Homo sapiens, UniProt P51449); assay: RORγ-Ligand Binding Domain (LBD) TR-FRET Assay; format: biochemical;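 on TR-FRET Assay Max Response: 665/615 nm ratio relative to signal without ursolic acid or compound set at 100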
T1 construct: made in house; host or cells: SF9 cells (baculovirus)
T1 sequence (P51449 269-508 limits assumed): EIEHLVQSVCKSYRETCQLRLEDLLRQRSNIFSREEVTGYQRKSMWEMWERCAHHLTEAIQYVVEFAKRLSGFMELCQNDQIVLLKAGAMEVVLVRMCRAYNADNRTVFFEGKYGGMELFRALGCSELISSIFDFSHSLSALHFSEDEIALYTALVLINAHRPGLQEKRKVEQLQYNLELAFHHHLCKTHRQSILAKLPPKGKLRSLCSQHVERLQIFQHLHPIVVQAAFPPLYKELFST
How it was run: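 TR-FRET read-out using a biotin-tagged SRC1 coactivator LXXLL peptide (200 nM final), with the antagonist ursolic acid present at 2 μM final. Receptor is His-tagged LBD expressed in SF9 cells, ~3 nM final in pH 7.0 Tris/KCl/EDTA/DTT/BSA buffer; compounds in 1% DMSO final.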

Gal4-RORγ-LBD = target: T2, Gal4-RORγ-LBD (Homo sapiens, UniProt P51449); assay: Gal4-RORγ Luciferase Reporter Assay in HEK-293T Cells; format: cell-based; conditions: HEK-293 cells
T2 construct: expressed in transfected cells; host or cells: HEK-293 cells (pcDNA3.1neo plasmid)
T2 sequence (P51449 269-508 limits assumed): T1 sequence (P51449 269-508 limits assumed)
How it was run: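 Luminescence read-out (One-Glo, 10 min RT) after overnight compound exposure at 37 °C in HEK-293 cells carrying Gal4-RORγ-LBD plus a Gal4-luciferase reporter, in the presence of 2 μM ursolic acid. Max Response is the upper plateau from a 4-parameter logistic fit, normalized to untreated signal = 100.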

[1] = luciferase reporter, with 2 μM ursolic acid

Row | SMILES | EC50 (RORγ-LBD) [nM] | EC50 (Gal4-RORγ-LBD; 2 μM ursolic acid) [nM] | EC50 (Gal4-RORγ-LBD; [1]) [nM] | TR-FRET Assay Max Response (RORγ-LBD) | Gal4-RORγ Assay Max Response (Gal4-RORγ-LBD; 2 μM ursolic acid) | Gal4-RORγ Assay Max Response (Gal4-RORγ-LBD; [1])
1 | CC(C)(C[C@H]1CN(S(=O)(=O)c2cccc(C(F)(F)F)c2)c2cc(-c3cccc(OC(F)F)c3F)ccc2O1)C(=O)O [Compound 32BJ, (S)-3-(6-(3-(difluoromethoxy)-2-fluorophenyl)-4-((3-(trifluoromethyl)phenyl)sulfonyl)-3,4-dihydro-2H-benzo[b][1,4]oxazin-2-yl)-2,2-dimethylpropanoic acid] | < 500 | < 500 |  | *** (The symbol “***” indicates a value in the range of greater than 150 to 200) | ** (The symbol “**” indicates a value in the range of greater than 90 to 150) | 
2 | COc1ccc(F)c(-c2ccc3c(c2)N(S(=O)(=O)c2cccc(C(F)(F)F)c2)C[C@H](CC(C)(C)C(=O)O)O3)c1F [Compound 32BK, (S)-3-(6-(2,6-difluoro-3-methoxyphenyl)-4-((3-(trifluoromethyl)phenyl)sulfonyl)-3,4-dihydro-2H-benzo[b][1,4]oxazin-2-yl)-2,2-dimethylpropanoic acid] | < 500 | < 500 |  | *** (The symbol “***” indicates a value in the range of greater than 150 to 200) | ** (The symbol “**” indicates a value in the range of greater than 90 to 150) | 
3 | O=C(O)C1(C[C@H]2CN(S(=O)(=O)c3cccc(C(F)(F)F)c3)c3cc(-c4cccc(C(F)(F)F)n4)ccc3O2)CCC1 [Compound 32BL, (S)-l-((4-((3-(trifluoromethyl)-phenyl)sulfonyl)-6-(6-(trifluoro-methyl)pyridin-2-yl)-3,4-dihydro-2H-benzo[b][1,4]oxazin-2-yl)methyl)cyclobutane-1-carboxylic acid] | < 500 | < 500 |  | ** (The symbol “**” indicates a value in the range of greater than 90 to 150) | * (The symbol “*” indicates a value in the range of 25 to 90) | 
4 | CC(C)(C[C@H]1CN(S(=O)(=O)c2cccc(C(F)(F)F)c2)c2cc(-c3c(F)ccc(F)c3F)ccc2O1)C(=O)O [Compound 32BM, (S)-2,2-dimethyl-3-(4-((3-(trifluoromethyl)phenyl)sulfonyl)-6-(2,3,6-trifluorophenyl)-3,4-dihydro-2H-benzo[b][1,4]oxazin-2-yl)propanoic acid] | < 500 | < 500 |  | *** (The symbol “***” indicates a value in the range of greater than 150 to 200) | ** (The symbol “**” indicates a value in the range of greater than 90 to 150) | 
5 | CN(C)c1cccc(-c2ccc3c(c2)N(S(=O)(=O)c2cccc(C(F)(F)F)c2)C[C@H](CC(C)(C)C(=O)O)O3)n1 [Compound 32D, (S)-3-(6-(6-(dimethylamino)-pyridin-2-yl)-4-((3-(trifluoromethyl)phenyl)sulfonyl)-3,4-dihydro-2H-benzo[b][1,4]oxazin-2-yl)-2,2-dimethylpropanoic acid] | < 500 |  | < 500 | **** (The symbol “****” indicates a value greater than 200) |  | ** (The symbol “**” indicates a value in the range of greater than 90 to 150)
6 | CC(C)(C[C@H]1CN(S(=O)(=O)c2cccc(C(F)(F)F)c2)c2cc(-c3cccc(C(F)(F)F)n3)ccc2O1)C(=O)O [Compound 32E, (S)-2,2-dimethyl-3-(4-((3-(trifluoromethyl)phenyl)sulfonyl)-6-(6-(trifluoromethyl)pyridin-2-yl)-3,4-dihydro-2H-benzo[b][1,4]oxazin-2-yl)propanoic acid] | < 500 |  | < 500 | **** (The symbol “****” indicates a value greater than 200) |  | ** (The symbol “**” indicates a value in the range of greater than 90 to 150)
7 | CC(C)(C[C@H]1CN(S(=O)(=O)c2cccc(C(F)(F)F)c2)c2cc(-c3cccc(OC(F)(F)F)c3)ccc2O1)C(=O)O [Compound 32F, (S)-2,2-dimethyl-3-(6-(3-(trifluoromethoxy)phenyl)-4-((3-(trifluoromethyl)phenyl)sulfonyl)-3,4-dihydro-2H-benzo[b][1,4]oxazin-2-yl)propanoic acid] | < 500 |  | < 500 | **** (The symbol “****” indicates a value greater than 200) |  | ** (The symbol “**” indicates a value in the range of greater than 90 to 150)
8 | CC(C)(C[C@H]1CN(S(=O)(=O)c2cccc(C(F)(F)F)c2)c2cc(-c3cccc(OC(F)F)c3)ccc2O1)C(=O)O [Compound 32G, (S)-3-(6-(3-(difluoromethoxy)-phenyl)-4-((3-(trifluoromethyl)-phenyl)sulfonyl)-3,4-dihydro-2H-benzo[b][1,4]oxazin-2-yl)-2,2-dimethylpropanoic acid] | < 500 |  | < 500 | *** (The symbol “***” indicates a value in the range of greater than 150 to 200) |  | ** (The symbol “**” indicates a value in the range of greater than 90 to 150)
9 | CC(C)(C[C@H]1CN(S(=O)(=O)c2cccc(C(F)(F)F)c2)c2cc(-c3cccc(F)c3Cl)ccc2O1)C(=O)O [Compound 32H, (S)-3-(6-(2-chloro-3-fluorophenyl)-4-((3-(trifluoromethyl)phenyl)sulfonyl)-3,4-dihydro-2H-benzo[b][1,4]oxazin-2-yl)-2,2-dimethylpropanoic acid] | < 500 |  | 500 to 5000 | **** (The symbol “****” indicates a value greater than 200) |  | ** (The symbol “**” indicates a value in the range of greater than 90 to 150)
10 | CC(C)(C[C@H]1CN(S(=O)(=O)c2cccc(C(F)(F)F)c2)c2cc(-c3cc(F)cc(F)c3)ccc2O1)C(=O)O [Compound 32N, (S)-3-(6-(3,5-difluorophenyl)-4-((3-(trifluoromethyl)phenyl)-sulfonyl)-3,4-dihydro-2H-benzo[b][1,4]oxazin-2-yl)-2,2-dimethylpropanoic acid] | < 500 |  | < 500 | *** (The symbol “***” indicates a value in the range of greater than 150 to 200) |  | ** (The symbol “**” indicates a value in the range of greater than 90 to 150)

More lines, main results first:

Row | EC50 (RORγ-LBD) [nM] | EC50 (Gal4-RORγ-LBD; 2 μM ursolic acid) [nM] | EC50 (Gal4-RORγ-LBD; [1]) [nM] | SMILES | TR-FRET Assay Max Response (RORγ-LBD) | Gal4-RORγ Assay Max Response (Gal4-RORγ-LBD; 2 μM ursolic acid) | Gal4-RORγ Assay Max Response (Gal4-RORγ-LBD; [1])
11 | < 500 |  | < 500 | COc1cc(F)cc(-c2ccc3c(c2)N(S(=O)(=O)c2cccc(C(F)(F)F)c2)C[C@H](CC(C)(C)C(=O)O)O3)c1F [Compound 32C, (S)-3-(6-(2,5-difluoro-3-methoxyphenyl)-4-((3-(trifluoromethyl)phenyl)sulfonyl)-3,4-dihydro-2H-benzo[b][1,4]oxazin-2-yl)-2,2-dimethylpropanoic acid] | **** (The symbol “****” indicates a value greater than 200) |  | ** (The symbol “**” indicates a value in the range of greater than 90 to 150)
12 | < 500 |  | 500 to 5000 | CC(C)(C[C@H]1CN(S(=O)(=O)c2cccc(C(F)(F)F)c2)c2cc(-c3cc(F)ccc3Cl)ccc2O1)C(=O)O [Compound 32I, (S)-3-(6-(2-chloro-5-fluorophenyl)-4-((3-(trifluoromethyl)phenyl)sulfonyl)-3,4-dihydro-2H-benzo[b][1,4]oxazin-2-yl)-2,2-dimethylpropanoic acid] | **** (The symbol “****” indicates a value greater than 200) |  | *** (The symbol “***” indicates a value in the range of greater than 150 to 200)
13 | < 500 |  | < 500 | CC(C)(C[C@H]1CN(S(=O)(=O)c2cccc(C(F)(F)F)c2)c2cc(-c3cccc(F)c3F)ccc2O1)C(=O)O [Compound 32K, (S)-3-(6-(2,3-difluorophenyl)-4-((3-(trifluoromethyl)-phenyl)sulfonyl)-3,4-dihydro-2H-benzo[b][1,4]oxazin-2-yl)-2,2-dimethylpropanoic acid] | **** (The symbol “****” indicates a value greater than 200) |  | ** (The symbol “**” indicates a value in the range of greater than 90 to 150)
14 | < 500 |  | < 500 | CC(C)(C[C@H]1CN(S(=O)(=O)c2cccc(C(F)(F)F)c2)c2cc(-c3cccc(C(F)(F)F)c3)ccc2O1)C(=O)O [Compound 32O, (S)-2,2-dimethyl-3-(6-(3-(trifluoromethyl)phenyl)-4-((3-(trifluoromethyl)phenyl)sulfonyl)-3,4-dihydro-2H-benzo[b][1,4]oxazin-2-yl)propanoic acid] | **** (The symbol “****” indicates a value greater than 200) |  | * (The symbol “*” indicates a value in the range of 25 to 90)
15 | < 500 |  | < 500 | CC(C)(CC[C@H]1CN(S(=O)(=O)c2cccc(C(F)(F)F)c2)c2cc(-c3cccc(C(F)(F)F)n3)ccc2O1)C(=O)O [Compound 32P, (S)-2,2-dimethyl-4-(4-((3-(trifluoromethyl)phenyl)sulfonyl)-6-(6-(trifluoromethyl)pyridin-2-yl)-3,4-dihydro-2H-benzo[b][1,4]oxazin-2-yl)butanoic acid] | *** (The symbol “***” indicates a value in the range of greater than 150 to 200) |  | ** (The symbol “**” indicates a value in the range of greater than 90 to 150)
